Experimental data taken from publication PMC11233931, “Remodeling tumor‐associated macrophage for anti‐cancer effects by rational design of irreversible inhibition of mitogen‐activated protein kinase‐activated protein kinase 2” (MedComm, 2024).

Legend:
Assay in all cases: Eurofins kinase selectivity profile against 380 other human recombinant kinases (Table S2)
Format in all cases: biochemical
[1] = target: T1, 380 human recombinant protein kinases (Homo sapiens, UniProt Q04771); conditions: ALK2(h), read-out: Inhibition rate
T1 construct: purchased Eurofins (Celle Lévescault)
T1 sequence (Q04771 21-509): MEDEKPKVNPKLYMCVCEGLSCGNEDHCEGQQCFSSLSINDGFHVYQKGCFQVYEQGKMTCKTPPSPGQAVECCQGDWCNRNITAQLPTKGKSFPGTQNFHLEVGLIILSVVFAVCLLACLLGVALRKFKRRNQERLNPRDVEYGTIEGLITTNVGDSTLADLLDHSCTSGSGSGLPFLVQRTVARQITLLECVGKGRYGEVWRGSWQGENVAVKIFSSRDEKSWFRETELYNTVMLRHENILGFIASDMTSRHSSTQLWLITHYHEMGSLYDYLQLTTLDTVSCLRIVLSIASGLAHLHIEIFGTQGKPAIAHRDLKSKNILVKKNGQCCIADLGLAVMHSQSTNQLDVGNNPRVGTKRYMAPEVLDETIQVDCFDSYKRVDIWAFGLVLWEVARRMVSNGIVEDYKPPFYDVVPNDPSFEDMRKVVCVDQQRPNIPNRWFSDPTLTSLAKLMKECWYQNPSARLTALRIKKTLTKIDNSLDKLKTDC
Method in brief: (§1)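 Off-target profiling: one compound assayed by a commercial provider over 380 recombinant human protein kinases at various concentrations.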

[2] = target: T2, 380 human recombinant protein kinases (Homo sapiens, UniProt Q9H0K1); conditions: SIK2(h), read-out: Inhibition rate (%)
T2 construct: purchased Eurofins (Celle Lévescault)
T2 sequence (Q9H0K1 whole entry): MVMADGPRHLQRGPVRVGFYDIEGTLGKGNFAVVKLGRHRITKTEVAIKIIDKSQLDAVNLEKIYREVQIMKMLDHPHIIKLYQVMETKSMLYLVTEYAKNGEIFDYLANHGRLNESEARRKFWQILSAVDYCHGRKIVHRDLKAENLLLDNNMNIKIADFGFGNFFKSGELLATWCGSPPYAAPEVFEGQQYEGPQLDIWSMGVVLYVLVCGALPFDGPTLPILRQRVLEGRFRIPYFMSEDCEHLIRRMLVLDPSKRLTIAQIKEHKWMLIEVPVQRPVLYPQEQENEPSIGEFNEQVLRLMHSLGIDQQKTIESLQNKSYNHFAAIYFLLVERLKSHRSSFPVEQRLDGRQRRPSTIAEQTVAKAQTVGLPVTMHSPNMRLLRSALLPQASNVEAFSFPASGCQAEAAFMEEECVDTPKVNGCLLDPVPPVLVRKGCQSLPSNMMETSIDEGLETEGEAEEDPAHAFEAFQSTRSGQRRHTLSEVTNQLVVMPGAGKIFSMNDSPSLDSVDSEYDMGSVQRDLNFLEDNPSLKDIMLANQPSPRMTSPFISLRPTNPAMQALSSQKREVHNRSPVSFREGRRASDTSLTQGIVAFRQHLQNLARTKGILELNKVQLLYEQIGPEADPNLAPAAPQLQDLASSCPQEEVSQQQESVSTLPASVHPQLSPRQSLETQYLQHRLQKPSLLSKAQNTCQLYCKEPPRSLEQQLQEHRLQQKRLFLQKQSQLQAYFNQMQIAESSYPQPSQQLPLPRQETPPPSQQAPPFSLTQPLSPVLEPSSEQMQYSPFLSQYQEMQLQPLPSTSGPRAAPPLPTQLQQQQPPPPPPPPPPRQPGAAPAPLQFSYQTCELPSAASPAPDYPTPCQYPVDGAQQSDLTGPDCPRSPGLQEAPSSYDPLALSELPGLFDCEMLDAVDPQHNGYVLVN
Method in brief: as §1

[3] = target: T3, 380 human recombinant protein kinases (Homo sapiens, UniProt Q13554); conditions: CaMKIIβ(h), read-out: Inhibition rate
T3 construct: purchased Eurofins (Celle Lévescault)
T3 sequence (Q13554 whole entry): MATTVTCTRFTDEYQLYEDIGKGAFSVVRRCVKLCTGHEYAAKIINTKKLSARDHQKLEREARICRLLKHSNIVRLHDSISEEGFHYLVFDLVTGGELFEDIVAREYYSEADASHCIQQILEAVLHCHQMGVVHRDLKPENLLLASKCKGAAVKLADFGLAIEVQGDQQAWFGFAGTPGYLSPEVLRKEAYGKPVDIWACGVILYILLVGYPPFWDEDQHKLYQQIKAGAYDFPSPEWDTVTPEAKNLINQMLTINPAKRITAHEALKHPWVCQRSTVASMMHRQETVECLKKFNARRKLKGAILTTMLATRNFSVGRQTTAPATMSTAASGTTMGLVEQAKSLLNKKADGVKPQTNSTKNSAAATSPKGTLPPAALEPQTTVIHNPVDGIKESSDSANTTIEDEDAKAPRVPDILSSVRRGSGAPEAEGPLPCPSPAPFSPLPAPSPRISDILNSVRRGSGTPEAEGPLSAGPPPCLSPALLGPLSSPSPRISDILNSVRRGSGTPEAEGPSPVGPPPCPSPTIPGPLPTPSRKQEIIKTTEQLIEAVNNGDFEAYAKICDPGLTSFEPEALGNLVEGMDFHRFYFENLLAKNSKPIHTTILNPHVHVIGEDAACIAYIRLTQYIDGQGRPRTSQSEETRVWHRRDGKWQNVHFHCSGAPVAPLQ
Method in brief: as §1

[4] = target: T4, 380 human recombinant protein kinases (Homo sapiens, UniProt P00519, H396P); conditions: Abl (H396P) (h), read-out: Inhibition rate
T4 construct: purchased Eurofins (Celle Lévescault)
Method in brief: as §1

[5] = target: T5, 380 human recombinant protein kinases (Homo sapiens, UniProt P05771); conditions: PKCβI(h), read-out: Inhibition rate
T5 construct: purchased Eurofins (Celle Lévescault)
T5 sequence (P05771 whole entry): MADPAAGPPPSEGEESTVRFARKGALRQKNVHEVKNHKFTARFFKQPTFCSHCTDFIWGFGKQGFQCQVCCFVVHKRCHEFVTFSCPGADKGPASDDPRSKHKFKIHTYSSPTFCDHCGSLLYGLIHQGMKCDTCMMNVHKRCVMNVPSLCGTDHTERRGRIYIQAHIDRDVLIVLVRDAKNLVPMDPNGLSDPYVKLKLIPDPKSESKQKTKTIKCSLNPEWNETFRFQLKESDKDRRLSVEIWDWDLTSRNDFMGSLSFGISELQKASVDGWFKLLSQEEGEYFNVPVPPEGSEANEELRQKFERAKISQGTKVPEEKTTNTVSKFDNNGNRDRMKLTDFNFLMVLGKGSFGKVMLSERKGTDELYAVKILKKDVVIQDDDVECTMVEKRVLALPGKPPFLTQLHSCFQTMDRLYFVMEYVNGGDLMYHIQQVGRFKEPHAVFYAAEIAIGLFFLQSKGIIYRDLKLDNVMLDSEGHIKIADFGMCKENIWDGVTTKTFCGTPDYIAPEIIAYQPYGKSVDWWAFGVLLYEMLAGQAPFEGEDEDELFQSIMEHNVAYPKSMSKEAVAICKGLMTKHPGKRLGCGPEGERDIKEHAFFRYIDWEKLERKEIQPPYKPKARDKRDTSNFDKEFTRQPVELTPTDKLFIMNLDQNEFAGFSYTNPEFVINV
Method in brief: as §1

[6] = target: T6, 380 human recombinant protein kinases (Homo sapiens, UniProt Q9UHD2); conditions: TBK1(h), read-out: Inhibition rate (%)
T6 construct: purchased Eurofins (Celle Lévescault)
T6 sequence (Q9UHD2 1-729): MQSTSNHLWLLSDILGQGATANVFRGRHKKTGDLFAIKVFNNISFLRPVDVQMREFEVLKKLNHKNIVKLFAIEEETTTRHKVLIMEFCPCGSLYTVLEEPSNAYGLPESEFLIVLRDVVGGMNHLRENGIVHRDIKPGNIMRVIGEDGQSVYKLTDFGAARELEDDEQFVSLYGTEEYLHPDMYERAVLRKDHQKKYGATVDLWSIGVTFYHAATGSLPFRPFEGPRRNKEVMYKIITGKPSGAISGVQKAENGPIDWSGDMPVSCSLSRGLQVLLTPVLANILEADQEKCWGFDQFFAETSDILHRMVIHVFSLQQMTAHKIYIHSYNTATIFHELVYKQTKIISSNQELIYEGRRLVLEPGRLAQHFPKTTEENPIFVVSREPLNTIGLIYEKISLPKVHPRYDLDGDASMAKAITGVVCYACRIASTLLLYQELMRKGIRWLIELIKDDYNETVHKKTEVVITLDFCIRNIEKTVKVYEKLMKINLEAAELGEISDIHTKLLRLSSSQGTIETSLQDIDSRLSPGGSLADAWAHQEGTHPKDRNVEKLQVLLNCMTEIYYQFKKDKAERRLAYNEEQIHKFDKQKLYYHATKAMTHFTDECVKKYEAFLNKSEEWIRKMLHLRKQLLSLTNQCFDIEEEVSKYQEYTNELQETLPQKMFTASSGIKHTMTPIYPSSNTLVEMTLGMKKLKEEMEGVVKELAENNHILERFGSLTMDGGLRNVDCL
Method in brief: as §1

[7] = target: T7, 380 human recombinant protein kinases (Homo sapiens, UniProt P49840); conditions: GSK3α(h), read-out: Inhibition rate
T7 construct: purchased Eurofins (Celle Lévescault)
T7 sequence (P49840 whole entry): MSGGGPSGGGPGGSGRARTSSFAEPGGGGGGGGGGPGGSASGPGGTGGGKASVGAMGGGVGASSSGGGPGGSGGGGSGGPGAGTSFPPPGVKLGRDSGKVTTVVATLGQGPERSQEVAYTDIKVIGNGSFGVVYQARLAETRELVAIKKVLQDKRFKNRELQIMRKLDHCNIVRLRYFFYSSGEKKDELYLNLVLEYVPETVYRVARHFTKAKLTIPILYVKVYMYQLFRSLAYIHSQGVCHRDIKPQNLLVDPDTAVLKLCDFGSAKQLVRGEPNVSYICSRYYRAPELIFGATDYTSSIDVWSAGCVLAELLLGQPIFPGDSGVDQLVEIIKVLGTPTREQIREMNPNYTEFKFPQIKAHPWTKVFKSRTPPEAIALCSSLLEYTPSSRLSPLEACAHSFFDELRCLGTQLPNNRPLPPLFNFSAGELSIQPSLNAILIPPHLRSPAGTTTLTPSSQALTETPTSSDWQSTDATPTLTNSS
Method in brief: as §1

[8] = target: T8, 380 human recombinant protein kinases (Homo sapiens, UniProt P25098); conditions: GRK2(h), read-out: Inhibition rate
T8 construct: purchased Eurofins (Celle Lévescault)
T8 sequence (P25098 1-689): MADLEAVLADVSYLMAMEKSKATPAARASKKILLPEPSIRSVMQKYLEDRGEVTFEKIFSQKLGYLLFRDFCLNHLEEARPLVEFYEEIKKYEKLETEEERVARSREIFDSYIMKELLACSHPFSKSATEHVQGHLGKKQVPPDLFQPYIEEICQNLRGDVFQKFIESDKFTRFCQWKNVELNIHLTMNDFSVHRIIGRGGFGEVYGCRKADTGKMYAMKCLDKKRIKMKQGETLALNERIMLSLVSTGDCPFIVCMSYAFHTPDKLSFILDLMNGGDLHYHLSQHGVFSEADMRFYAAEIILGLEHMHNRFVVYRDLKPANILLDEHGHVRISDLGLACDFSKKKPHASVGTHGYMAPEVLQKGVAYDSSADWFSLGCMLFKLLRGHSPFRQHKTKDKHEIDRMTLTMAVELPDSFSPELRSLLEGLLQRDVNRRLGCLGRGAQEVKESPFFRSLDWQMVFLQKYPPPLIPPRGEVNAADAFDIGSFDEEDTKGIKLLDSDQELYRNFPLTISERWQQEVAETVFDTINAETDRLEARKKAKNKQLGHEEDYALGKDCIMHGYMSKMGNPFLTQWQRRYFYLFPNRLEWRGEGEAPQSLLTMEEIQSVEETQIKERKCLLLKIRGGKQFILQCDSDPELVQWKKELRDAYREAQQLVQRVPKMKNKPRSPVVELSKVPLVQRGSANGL
Method in brief: as §1

## C=CC(=O)Nc1cc(-c2cc(-c3cc4c([nH]3)CCNC4=O)ccn2)ccc1OC(F)(F)F [compound 11]
[1]; 10 nM
  inhibition at 0.01 µM: -4%
[1]; 100 nM
  inhibition at 0.1 µM: -6%
[1]; 1000 nM
  inhibition at 1 µM: 0%
[2]; 10 nM
  inhibition at 0.01 µM: 2%
[2]; 100 nM
  inhibition at 0.1 µM: 4%
[2]; 1000 nM
  inhibition at 1 µM: 8%
[3]; 10 nM
  inhibition at 0.01 µM: -1%
[3]; 100 nM
  inhibition at 0.1 µM: 9%
[3]; 1000 nM
  inhibition at 1 µM: 14%
[4]; 10 nM
  inhibition at 0.01 µM: 6%
[4]; 100 nM
  inhibition at 0.1 µM: 3%
[4]; 1000 nM
  inhibition at 1 µM: 1%
[5]; 10 nM
  inhibition at 0.01 µM: 3%
[5]; 100 nM
  inhibition at 0.1 µM: 1%
[5]; 1000 nM
  inhibition at 1 µM: -13%
[6]; 10 nM
  inhibition at 0.01 µM: 1%
[6]; 100 nM
  inhibition at 0.1 µM: -13%
[6]; 1000 nM
  inhibition at 1 µM: -7%
[7]; 10 nM
  inhibition at 0.01 µM: 15%
[7]; 100 nM
  inhibition at 0.1 µM: -9%
[7]; 1000 nM
  inhibition at 1 µM: 10%
[8]; 10 nM
  inhibition at 0.01 µM: -6%
[8]; 100 nM
  inhibition at 0.1 µM: -9%
[8]; 1000 nM
  inhibition at 1 µM: -2%
